Data as given in patent publication US5527703A (Merck & Co., Inc., priority 1994, dated 1996).

Legend:
Format in all cases: cell-based, C. elegans
GluClβ = biological target: T1, GluClβ (Caenorhabditis elegans, UniProt Q17328); assay: Activation of current in Xenopus oocytes expressing homomeric GluClβ (voltage clamp)
T1 construct: the full-length open reading frame of the GluCl cDNA encoding the GluClα (52,550 kDa) and GluClβ (49,900kDa) subunits; expressed in transfected cells; host or cells: Xenopus laevis oocytes injected with in vitro RNA
T1 sequence (Q17328 23-434): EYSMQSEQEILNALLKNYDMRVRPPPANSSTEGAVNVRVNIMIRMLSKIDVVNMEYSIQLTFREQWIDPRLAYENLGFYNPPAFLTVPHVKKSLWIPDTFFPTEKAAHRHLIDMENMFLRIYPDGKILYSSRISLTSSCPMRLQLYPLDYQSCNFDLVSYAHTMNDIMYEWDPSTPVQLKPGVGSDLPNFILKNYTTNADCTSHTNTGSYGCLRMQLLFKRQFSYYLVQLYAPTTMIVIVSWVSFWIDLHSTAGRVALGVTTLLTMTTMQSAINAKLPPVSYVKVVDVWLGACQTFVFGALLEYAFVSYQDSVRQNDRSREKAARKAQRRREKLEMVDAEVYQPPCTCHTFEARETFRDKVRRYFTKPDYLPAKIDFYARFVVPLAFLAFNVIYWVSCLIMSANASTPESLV
Experimental: (§1) Xenopus laevis oocytes were prepared and injected using standard methods previously described and known in the art [Arena, J. P., Liu. K. K., Paress, P. S. & Cully. D. F. Mol. Pharmacol. 40, 368-374 (1991 ); Arena, J. P., Liu, K. K., Paress, P. S., Schaeffer, J. M. & Cully, D. F. Mol. Brain Res. 15, 339-348 (1992)]. Adult female Xenopus laevis were anesthetized with 0.17% tricaine methanesulfonate and the ovaries were surgically removed and placed in a dish consisting of (mM): NaCl 1 82.5, KCl 2. MgCl2 1, CaCl2 1.8, HEPES 5 adjusted to pH 7.5 with NaOH (OR-2). Ovarian lobes were broken open, rinsed several times, and gently shaken in OR-2 containing 0.2% collagenase (Sigma, Type 1A) for 2-5 hours. When approximately 50% of the follicular layers were removed, Stage V and VI oocytes were selected and placed in media consisting of (mM): NaCl 86, KCl 2, MgCl2 1, CaCl2 1.8, HEPES 5, Na pyruvate 2.5, theophylline 0.5, gentamicin 0.1 adjusted to pH 7.5 with NaOH (ND-96) for 24-48 hours before injection. Oocytes were injected with 50-70 nl of poly(A^+) RNA (1 mg/ml) or 50 nl of GluClα (0.1-100 ng) and/or GluClβ (0.1-100 ng). Control oocytes were injected with 50 nl of water. Oocytes were incubated for 2-10 days in ND-96 before recording. Incubations and collagenase digestion were carried out at 18° C.
(§2) Recordings were made at room temperature 2-10 days after injection. Unless otherwise indicated recordings were made in standard frog saline consisting of (mM): NaCl 115, KCl 2, MgCl2 1, CaCl2 1.8, HEPES 10 adjusted to pH 7.5 with NaOH. Oocytes were voltage-clamped using a standard two microelectrode amplifier (Dagan 8500 or TEV-200, Minneapolis,Minn.). Pipettes were filled with 3M KCl and had resistances between 0.5-3.0 M.OMEGA.. A plexiglass recording chamber (volume 200 μl) was constantly perfused at a rate of 10 ml/min. The recording chamber was connected to ground with a Ag/AgCl electrode directly, or through a 3M KCl agar bridge when extracellular chloride was varied. For low chloride solutions NaCl was replaced with equimolar concentrations of sodium isethionic acid. For low sodium solutions NaCl was replaced with equimolar KCl or choline Cl. Data were acquired and analyzed using PCLAMP with a TL-1 interface (Axon Instruments, Foster City, Calif.). Membrane current at a holding potential of -80 mV was recorded. The amplitude of drug-sensitive current was determined by subtracting the holding current at -80 mV from the peak current obtained in the presence of drug. Data were filtered at 30 Hz and sampled at 16.6 Hz. Current/voltage relationships (I/V) and reversal potentials (Erev) were determined using a 1-3 sec voltage ramp over the voltage range of -110 to +80 mV. For the ramps, data were filtered at 0.3-3 kHz and sampled at 160 Hz. Current in drug free solution was subtracted from current in the presence of drug to obtain drug-sensitive current/voltage relationships.
(§3) Electrophysiological properties were examined in oocytes injected with in vitro RNA from pGluClα and pGluClβ (FIG. 5).

GluCl α&β = biological target: T2, GluCl α&β (Caenorhabditis elegans, UniProt G5EBR3+Q17328); assay: Modulation of glutamate-sensitive current by IVMPO4, GluCl α&β injected oocytes
T2 construct: the full-length open reading frame of the GluCl cDNA encoding the GluClα (52,550 kDa) and GluClβ (49,900kDa) subunits; expressed in transfected cells; host or cells: Xenopus laevis oocytes injected with in vitro RNA
T2 sequence (G5EBR3 21-461): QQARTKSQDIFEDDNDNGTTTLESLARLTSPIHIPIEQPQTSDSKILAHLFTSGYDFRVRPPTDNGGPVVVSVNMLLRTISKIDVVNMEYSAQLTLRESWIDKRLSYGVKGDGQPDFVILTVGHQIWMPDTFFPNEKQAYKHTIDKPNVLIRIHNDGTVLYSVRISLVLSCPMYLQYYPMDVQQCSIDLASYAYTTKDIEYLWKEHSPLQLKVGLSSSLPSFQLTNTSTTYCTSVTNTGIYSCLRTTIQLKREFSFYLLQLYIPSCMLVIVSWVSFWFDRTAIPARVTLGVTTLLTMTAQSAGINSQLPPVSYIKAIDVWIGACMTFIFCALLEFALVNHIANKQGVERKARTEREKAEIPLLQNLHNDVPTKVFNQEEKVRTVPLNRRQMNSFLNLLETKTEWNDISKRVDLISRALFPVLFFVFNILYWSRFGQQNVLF
T2 sequence (Q17328 23-434): T1 sequence (Q17328 23-434)
Experimental: Xenopus laevis oocytes were prepared and injected using standard methods previously described and known in the art [Arena, J. P., Liu. K. K., Paress, P. S. & Cully. D. F. Mol. Pharmacol. 40, 368-374 (1991 ); Arena, J. P., Liu, K. K., Paress, P. S., Schaeffer, J. M. & Cully, D. F. Mol. Brain Res. 15, 339-348 (1992)]. Adult female Xenopus laevis were anesthetized with 0.17% tricaine methanesulfonate and the ovaries were surgically removed and placed in a dish consisting of (mM): NaCl 1 82.5, KCl 2. MgCl2 1, CaCl2 1.8, HEPES 5 adjusted to pH 7.5 with NaOH (OR-2). Ovarian lobes were broken open, rinsed several times, and gently shaken in OR-2 containing 0.2% collagenase (Sigma, Type 1A) for 2-5 hours. […]
Recordings were made at room temperature 2-10 days after injection. […] Data were acquired and analyzed using PCLAMP with a TL-1 interface (Axon Instruments, Foster City, Calif.). Membrane current at a holding potential of -80 mV was recorded. The amplitude of drug-sensitive current was determined by subtracting the holding current at -80 mV from the peak current obtained in the presence of drug. […] Current/voltage relationships (I/V) and reversal potentials (Erev) were determined using a 1-3 sec voltage ramp over the voltage range of -110 to +80 mV. […]

GluClα = biological target: T3, GluClα (Caenorhabditis elegans, UniProt G5EBR3); assay: Activation of current in Xenopus oocytes expressing homomeric GluClα (voltage clamp); set-up: the full-length open reading frame of the GluCl cDNA encoding the GluClα (52,550 kDa) and GluClβ (49,900kDa) subunits; expressed in transfected cells; host or cells: Xenopus laevis oocytes injected with in vitro RNA
T3 sequence (G5EBR3 21-461): T2 sequence (G5EBR3 21-461)
Experimental: as §1, §2, §3

Compound | response of homomeric GluClβ channels (GluClβ) | threshold for activation of homomeric GluClβ channels (GluClβ) | Hill coefficient (glutamate) (GluClβ; GluClβ) | voltage dependence of current (GluClβ; I/V, GluClβ) | EC50 (GluClβ; read-out: EC50 for glutamate, GluClβ alone) | Hill coefficient (glutamate) with coapplied IVMPO4 (GluCl α&β; coapplication of IVMPO4 and glutamate) | response of homomeric GluClα channels (GluClα) | sensitivity of GluClα channels to glutamate (GluClα; glutamate concentrations as high as 10 mM) | potentiation of glutamate-sensitive current (GluCl α&β; IVMPO4 5 nM) | Hill coefficient (IVMPO4) (GluClα; GluClα) | EC50 (GluClα; GluClα, read-out: EC50 for IVMPO4 activation of current) | voltage dependence of current (GluClα; I/V, GluClα) | time course for IVMPO4 activation (GluClα; homomeric GluClα)
N[C@@H](CCC(=O)O)C(=O)O [glutamate] | selectively responsive | 50 µM | 1.9 | steep outwardly rectifying voltage dependence | 380 µM | 1.3 | do not respond | insensitive |  |  |  |  | 
ivermectin-4-O-phosphate [IVMPO4] | do not respond |  |  |  |  |  | selectively responsive |  | 490±45% | 1.5 | 0.14 µM | essentially a linear voltage dependence | 18 ± 1 s
